Reference: patent publication US9695155B2, “Herbicidal substituted pyrimidinyloxy benzene compounds” (E. I. DU PONT DE NEMOURS AND COMPANY, priority 2013, dated 2017)

What was measured:
barnyardgrass [1] = assay: Test C flooded paddy test; type: in vivo, Echinochloa crus-galli; conditions: Flood, scale 0 to 100 (0 no effect, 100 complete control), 13 to 15 days
Procedure, shortened: (§1)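 Pots were flooded to 3 cm above the soil surface at treatment, compound applied directly to the paddy water, and that depth held throughout. Plants were kept in a greenhouse for 13 to 15 days, then visually rated against untreated controls.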

wild poinsettia = assay: Test E preemergence; type: in vivo, Euphorbia heterophylla; conditions: for Poinsettia, Wild plant response rating: scale 0 to 100 (0 no effect, 100 complete control)
Procedure, shortened: (§2)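 Compound in a non-phytotoxic solvent mixture with surfactant was applied preemergence to seeds in silt loam soil, or postemergence to plants 2 to 18 cm tall grown in peat-based potting medium. Plants were kept in a greenhouse for 14 to 21 days, then rated visually against untreated controls on a 0 (no effect) to 100 (complete control) scale.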

waterhemp = assay: Test E preemergence; type: in vivo, Amaranthus rudis; conditions: for Waterhemp plant response rating: scale 0 to 100 (0 no effect, 100 complete control)
Procedure, shortened: as §2

barnyardgrass [2] = assay: Test E preemergence; type: in vivo, Echinochloa crus-galli; conditions: preemergence; for Barnyardgrass plant response rating: scale 0 to 100 (0 no effect, 100 complete control)
Procedure, shortened: as §2

corn = assay: Test E preemergence; type: in vivo, Zea mays; conditions: for Corn plant response rating: scale 0 to 100 (0 no effect, 100 complete control)
Procedure, shortened: as §2

ducksalad = assay: Test C flooded paddy test; type: in vivo, Heteranthera limosa; conditions: Flood, scale 0 to 100 (0 no effect, 100 complete control), 13 to 15 days
Procedure, shortened: as §1

goosegrass = assay: Test E preemergence; type: in vivo, Eleusine indica; conditions: for Goosegrass plant response rating: scale 0 to 100 (0 no effect, 100 complete control)
Procedure, shortened: as §2

lambsquarters = assay: Test E preemergence; type: in vivo, Chenopodium album; conditions: for Lambsquarters plant response rating: scale 0 to 100 (0 no effect, 100 complete control)
Procedure, shortened: as §2

Brazilian crabgrass = assay: Test E preemergence; type: in vivo, Digitaria horizontalis; conditions: for Crabgrass, Brazil plant response rating: scale 0 to 100 (0 no effect, 100 complete control)
Procedure, shortened: as §2

field bindweed = assay: Test E preemergence; type: in vivo, Convolvulus arvensis; conditions: for Field Bindweed plant response rating: scale 0 to 100 (0 no effect, 100 complete control)
Procedure, shortened: as §2

[3] = 8 g ai/ha, scale 0 to 100, 0 is no effect, 100 is complete control
[4] = 125 g ai/ha, scale 0 to 100, 0 no effect, 100 complete control

Compound | Plant response rating, Barnyardgrass (barnyardgrass [1]; 31 g ai/ha) | Plant response rating, Barnyardgrass (barnyardgrass [1]; 62 g ai/ha) | Plant response rating, Barnyardgrass (barnyardgrass [1]; 125 g ai/ha) | Plant response rating, Barnyardgrass (barnyardgrass [1]; 250 g ai/ha) | Poinsettia, Wild plant response rating (wild poinsettia; 62 g ai/ha) | Waterhemp plant response rating (waterhemp; 62 g ai/ha) | Barnyardgrass plant response rating (barnyardgrass [2]; 62 g ai/ha) | Corn plant response rating (corn; 62 g ai/ha) | Plant response rating, Ducksalad (ducksalad; 31 g ai/ha) | Plant response rating, Ducksalad (ducksalad; 62 g ai/ha) | Plant response rating, Ducksalad (ducksalad; 125 g ai/ha) | Plant response rating, Ducksalad (ducksalad; 250 g ai/ha) | Goosegrass plant response rating (goosegrass; 62 g ai/ha) | Lambsquarters plant response rating (lambsquarters; 62 g ai/ha) | Crabgrass, Brazil plant response rating (Brazilian crabgrass; 62 g ai/ha) | Field Bindweed plant response rating (field bindweed; 62 g ai/ha) | also measured
Fc1cccc(Oc2ncc(Cl)cn2)c1-n1cc(I)cn1 [Compound 179] | 0 | 0 | 0 | 0 | 30 | 90 | 10 | 0 | 20 | 60 | 85 | 95 | 35 | 95 | 65 | 0 | Plant response rating, Poinsettia, Wild (wild poinsettia; [3]): 0; Plant response rating, Poinsettia, Wild (wild poinsettia; [4]): 35; Plant response rating, Waterhemp (waterhemp; [3]): 0; Plant response rating, Waterhemp (waterhemp; [4]): 98; Plant response rating, Barnyardgrass (barnyardgrass [2]; [3]): 0; Barnyardgrass plant response rating (barnyardgrass [2]; 16 g ai/ha): 0; Plant response rating, Barnyardgrass (barnyardgrass [2]; [4]): 20; Plant response rating, Corn (corn; [3]): 0; Corn plant response rating (corn; 16 g ai/ha): 0; Plant response rating, Corn (corn; [4]): 0; Plant response rating, Goosegrass (goosegrass; [3]): 0; Plant response rating, Goosegrass (goosegrass; [4]): 70; Plant response rating, Lambsquarters (lambsquarters; [3]): 0; Plant response rating, Lambsquarters (lambsquarters; [4]): 100; Plant response rating, Crabgrass, Brazil (Brazilian crabgrass; [3]): 0; Crabgrass, Brazil plant response rating (Brazilian crabgrass; 16 g ai/ha): 0; Plant response rating, Crabgrass, Brazil (Brazilian crabgrass; [4]): 100; Plant response rating, Field Bindweed (field bindweed; [3]): 0; Field Bindweed plant response rating (field bindweed; 16 g ai/ha): 0; Plant response rating, Field Bindweed (field bindweed; [4]): 30
FC(F)c1cccc(Oc2ncc(Cl)cn2)c1-n1cc(Br)cn1 [Compound 194, 2-[2-(4-bromo-1H-pyrazol-1-yl)-3-(difluoromethyl)phenoxy]-5-chloropyrimidine] | 0 | 0 | 0 | 0 | 0 | 100 | 0 | 0 | 65 | 80 | 90 | 100 | 75 | 100 | 98 | 40 | Poinsettia, Wild plant response rating (wild poinsettia; 31 g ai/ha): 10; Waterhemp plant response rating (waterhemp; 31 g ai/ha): 98; Barnyardgrass plant response rating (barnyardgrass [2]; 31 g ai/ha): 0; Corn plant response rating (corn; 31 g ai/ha): 0; Goosegrass plant response rating (goosegrass; 31 g ai/ha): 40; Lambsquarters plant response rating (lambsquarters; 31 g ai/ha): 80; Crabgrass, Brazil plant response rating (Brazilian crabgrass; 31 g ai/ha): 65; Field Bindweed plant response rating (field bindweed; 31 g ai/ha): 0
